# In PubChem BioAssay AID2060333 (Molecular Pharmacology Branch, DTP, NCI, 2025):
# Tested on: 845751-090-R-J2-PDC tumor spheroid viability
# Experiment: Anticancer human tumor 845751-090-R-J2-PDC patient-derived head and neck squamous carcinoma cell line growth inhibition [IpAb]
# Conditions: spheroids with HUVEC and MSC; for IC50: curve of first compound; for viability, T/C: stronger effect = lower value
# Source text: Combinatorial screen of targeted agents with ipatasertib and abemaciclib in multi-cell type tumor spheroids
# A high-throughput screen of multi-cell type tumor spheroids was designed to identify active combinations of targeted small molecules and ipatasertib or abemaciclib. Complex spheroids include a stromal component modeled by human endothelial cells (HUVEC) and fibroblasts modeled by human mesenchymal stem cells (MSCs). The concentration ranges selected for each drug and investigational agent were based upon clinically achievable concentrations if the clinical Cmax of the agent was known.
# Compounds. The drugs and investigational agents: ipatasertib (NSC767898), abemaciclib(NSC768073), selumetinib (NSC741078), trametinib (758246), adavosertib (NSC754352), everolimus (NSC733504), sapanisertib (NSC764658), vemurafenib (NSC761431), venetoclax (NSC766270), copanlisib (NSC809693), apelisib (NSC765974), palbociblib (NSC758247), vemurafenib (NSC761431), dabrafenib (NSC764134), ravoxertinib (NSC781343), BMS-387032 (NSC767048), sotorasib (NSC818433), talazoparib (NSC767125) and afursertib (NSC778305), were obtained from the National Cancer Institute (NCI) Developmental Therapeutics Program Chemical Repository. The FDA-approved anticancer drug set is available from the NCI Developmental Therapeutics Program. […] The stock solutions were prepared in dimethyl sulfoxide (DMSO, Sigma-Aldrich, St. Louis, MO, cat. D2650) at 800-fold the tested concentration and stored at -70 degrees C prior to their use. All drugs and investigational agents were tested over a range starting from a high concentration at or near the clinical Cmax and decreasing in half-log increments. If the clinical Cmax for an agent had not been determined, the highest concentration tested was 10 microM.
# NCI60 Cell Culture. NCI60 cell lines were obtained from the NCI Developmental Therapeutics Program Tumor Repository. For each lot of cells, the Repository performed Applied Biosystems AmpFLSTR Identifiler testing with PCR amplification to confirm consistency with the published Identifier STR profile for each cell line. Cells were kept in continuous culture for no more than 20 passages. The optimal seeding densities for each of the cell lines at each time point assessed were determined prior to performing the concentration response studies. Briefly, the NCI60 human tumor lines were grown as monolayers in RPMI 1640 medium supplemented with 10% FBS and 2 mmol/L L-glutamine.
# An additional 9 lines were from the NCI60 cell line panel including MDA-MB-231 breast carcinoma, MDA-MB-468 breast carcinoma, MCF7 breast carcinoma, Hs578T breast carcinoma, MALME-3M melanoma, SK-MEL-2 melanoma, SK-OV-3 ovarian carcinoma, DU-145 prostate carcinoma, PC-3 prostate carcinoma, all cell lines along with major genetic alterations are listed on Table 2. Pooled donor human umbilical vein endothelial cells (HUVEC, Lonza, cat. CC-2519) and human mesenchymal stem cells (hMSC, Lonza, cat. PT-2501) were purchased from Lonza (Walkersville, MD).
# PDMR cell lines were grown in complete medium (DC medium): Dulbecco's modified Eagle's medium (DMEM)/F12 supplemented with 5% fetal bovine serum (FBS), 2 mM L-glutamine, 100 U/mL penicillin and 100 µg/ml streptomycin, 0.4 µg/ml hydrocortisone, 10 ng/ml epidermal growth factor (EGF) recombinant human protein, 24 µg/mL adenine, and 0.1 mg/mL primocin. During culture from frozen stock vials, PDMR cells were cultured in the same medium containing 10 µM Y-27632 (see Table 3). The PDCs were cultured in complete DMEM/F12 media without 10 microM Y-27632 dihydrochloride for at least two passages prior to the screen. The pooled donor HUVEC and hMSC were cultured in endothelial cell growth medium 2 (PromoCell, Heidelberg, Germany, cat. C-22011) and mesenchymal stem cell growth medium 2 (PromoCell, cat. C-28009), respectively. For all experiments, HUVEC and hMSC were used at passages </=5.
# […]
# 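Further: spheroids exposed to compounds for 7 days before readout.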
# 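Wherever viability, T/C is given: CTG3D luminescence normalised so that 100% = DMSO vehicle control.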
compound,measurement,setting,value
C=CCn1c(=O)c2cnc(Nc3ccc(N4CCN(C)CC4)cc3)nc2n1-c1cccc(C(C)(C)O)n1 + CC(C)NCC(C(=O)N1CCN(c2ncnc3c2C(C)CC3O)CC1)c1ccc(Cl)cc1,IC50,second compound 0.1 µM,54.6 nM
same,IC50,second compound 0.316 µM,< 31.6 nM
same,IC50,second compound 1 µM,< 31.6 nM
same,IC50,second compound 3.16 µM,< 31.6 nM
same,IC50,second compound 10 µM,< 31.6 nM
same,"viability, T/C","second compound 0.1 µM, first compound 0.0316 µM",62.1%
same,"viability, T/C","second compound 0.1 µM, first compound 0.1 µM",38.2%
same,"viability, T/C","second compound 0.1 µM, first compound 0.316 µM",22.2%
same,"viability, T/C","second compound 0.1 µM, first compound 1 µM",21.7%
same,"viability, T/C","second compound 0.1 µM, first compound 3.16 µM",35.8%
same,"viability, T/C","second compound 0.1 µM, first compound 10 µM",56.6%
same,"viability, T/C","second compound 0.316 µM, first compound 0.0316 µM",34%
same,"viability, T/C","second compound 0.316 µM, first compound 0.1 µM",22.1%
same,"viability, T/C","second compound 0.316 µM, first compound 0.316 µM",19.9%
same,"viability, T/C","second compound 0.316 µM, first compound 1 µM",16.9%
same,"viability, T/C","second compound 0.316 µM, first compound 3.16 µM",22.1%
same,"viability, T/C","second compound 0.316 µM, first compound 10 µM",28.4%
same,"viability, T/C","second compound 1 µM, first compound 0.0316 µM",24.5%
same,"viability, T/C","second compound 1 µM, first compound 0.1 µM",15%
same,"viability, T/C","second compound 1 µM, first compound 0.316 µM",11.1%
same,"viability, T/C","second compound 1 µM, first compound 1 µM",13.7%
same,"viability, T/C","second compound 1 µM, first compound 3.16 µM",22.9%
same,"viability, T/C","second compound 1 µM, first compound 10 µM",18.9%
same,"viability, T/C","second compound 3.16 µM, first compound 0.0316 µM",19.2%
same,"viability, T/C","second compound 3.16 µM, first compound 0.1 µM",8.76%
same,"viability, T/C","second compound 3.16 µM, first compound 0.316 µM",7.09%
same,"viability, T/C","second compound 3.16 µM, first compound 1 µM",32.9%
same,"viability, T/C","second compound 3.16 µM, first compound 3.16 µM",19.9%
same,"viability, T/C","second compound 3.16 µM, first compound 10 µM",11.9%
same,"viability, T/C","second compound 10 µM, first compound 0.0316 µM",6.27%
same,"viability, T/C","second compound 10 µM, first compound 0.1 µM",4.29%
same,"viability, T/C","second compound 10 µM, first compound 0.316 µM",4.36%
same,"viability, T/C","second compound 10 µM, first compound 1 µM",14%
same,"viability, T/C","second compound 10 µM, first compound 3.16 µM",13.9%
same,"viability, T/C","second compound 10 µM, first compound 10 µM",8.16%
Cn1cnc2c(F)c(Nc3ccc(Br)cc3Cl)c(C(=O)NOCCO)cc21 + CC(C)NCC(C(=O)N1CCN(c2ncnc3c2C(C)CC3O)CC1)c1ccc(Cl)cc1,IC50,second compound 0.1 µM,< 9.49 nM
same,IC50,second compound 0.316 µM,< 9.49 nM
same,IC50,second compound 1 µM,< 9.49 nM
same,IC50,second compound 3.16 µM,< 9.49 nM
same,IC50,second compound 10 µM,< 9.49 nM
same,"viability, T/C","second compound 0.1 µM, first compound 0.00949 µM",40.2%
same,"viability, T/C","second compound 0.1 µM, first compound 0.03 µM",29.9%
same,"viability, T/C","second compound 0.1 µM, first compound 0.0949 µM",23.6%
same,"viability, T/C","second compound 0.1 µM, first compound 0.3 µM",20.6%
same,"viability, T/C","second compound 0.1 µM, first compound 0.949 µM",16.6%
same,"viability, T/C","second compound 0.1 µM, first compound 3 µM",12.3%
same,"viability, T/C","second compound 0.316 µM, first compound 0.00949 µM",17.2%
same,"viability, T/C","second compound 0.316 µM, first compound 0.03 µM",15.4%
same,"viability, T/C","second compound 0.316 µM, first compound 0.0949 µM",11.9%
same,"viability, T/C","second compound 0.316 µM, first compound 0.3 µM",11.2%
same,"viability, T/C","second compound 0.316 µM, first compound 0.949 µM",7.05%
same,"viability, T/C","second compound 0.316 µM, first compound 3 µM",5%
same,"viability, T/C","second compound 1 µM, first compound 0.00949 µM",14.4%
same,"viability, T/C","second compound 1 µM, first compound 0.03 µM",10.5%
same,"viability, T/C","second compound 1 µM, first compound 0.0949 µM",6.55%
same,"viability, T/C","second compound 1 µM, first compound 0.3 µM",4.68%
same,"viability, T/C","second compound 1 µM, first compound 0.949 µM",4.96%
same,"viability, T/C","second compound 1 µM, first compound 3 µM",2.43%
same,"viability, T/C","second compound 3.16 µM, first compound 0.00949 µM",11.3%
same,"viability, T/C","second compound 3.16 µM, first compound 0.03 µM",5.57%
same,"viability, T/C","second compound 3.16 µM, first compound 0.0949 µM",3.02%
same,"viability, T/C","second compound 3.16 µM, first compound 0.3 µM",3.4%
same,"viability, T/C","second compound 3.16 µM, first compound 0.949 µM",1.75%
same,"viability, T/C","second compound 3.16 µM, first compound 3 µM",1.07%
same,"viability, T/C","second compound 10 µM, first compound 0.00949 µM",2.67%
same,"viability, T/C","second compound 10 µM, first compound 0.03 µM",1.92%
same,"viability, T/C","second compound 10 µM, first compound 0.0949 µM",1.37%
same,"viability, T/C","second compound 10 µM, first compound 0.3 µM",1.13%
same,"viability, T/C","second compound 10 µM, first compound 0.949 µM",2.24%
same,"viability, T/C","second compound 10 µM, first compound 3 µM",0.56%
